ChEMBL document CHEMBL4130376, “Discovery of methylsulfonyl indazoles as potent and orally active respiratory syncytial Virus(RSV) fusion inhibitors” (Eur J Med Chem, 2017)

Legend:
[1] = Tmax in rat at 10 mg/kg, po; format: ADME, organism-based; conditions: in vivo
[2] = Metabolic stability in mouse liver microsomes by high-throughput screening based assay; format: ADME, microsome; conditions: read-out: Stability
[3] = Half life in rat at 10 mg/kg, po; format: ADME, organism-based; conditions: in vivo
[4] = Cmax in rat at 10 mg/kg, po; format: ADME, organism-based; parameters: dose 10 mg/kg, route oral; conditions: in vivo
[5] = Volume of distribution at steady state in rat at 2 mg/kg, iv; format: ADME, organism-based; conditions: in vivo, read-out: Vdss
[6] = Effective permeability of the compound by PAMPA; format: ADME; conditions: read-out: Peff
[7] = Half life in rat at 2 mg/kg, iv; format: ADME, organism-based; conditions: in vivo
[8] = Metabolic stability in human liver microsomes by high-throughput screening based assay; format: ADME, microsome; conditions: read-out: Stability
[9] = Oral bioavailability in rat at 10 mg/kg; format: ADME, organism-based; conditions: in vivo
[10] = Cmax in rat at 2 mg/kg, iv; format: ADME, organism-based; parameters: dose 2 mg/kg, route intravenous; conditions: in vivo
[11] = AUC (0 to 24 hrs) in rat at 2 mg/kg, iv; format: ADME, organism-based; parameters: dose 2 mg/kg, time < 24 hr, route intravenous; conditions: in vivo
[12] = AUC (0 to 24 hrs) in rat at 10 mg/kg, po; format: ADME, organism-based; parameters: time < 24 hr, dose 10 mg/kg, route oral; conditions: in vivo
[13] = Plasma clearance in rat at 2 mg/kg, iv; format: ADME, organism-based
[14] = Cmax in rat at 1 mg/kg, iv; format: ADME, organism-based; parameters: dose 1 mg/kg, route intravenous; conditions: in vivo
[15] = Cmax in rat at 5 mg/kg, po; format: ADME, organism-based; parameters: dose 5 mg/kg, route oral; conditions: in vivo
[16] = Tmax in rat at 5 mg/kg, po; format: ADME, organism-based; conditions: in vivo
[17] = Metabolic stability in rat liver microsomes by high-throughput screening based assay; format: ADME, microsome; conditions: read-out: Stability
[18] = Oral bioavailability in rat at 5 mg/kg; format: ADME, organism-based; conditions: in vivo
Rattus norvegicus = experiment: AUC (0 to 24 hrs) in rat at 1 mg/kg, iv; format: ADME, organism-based; parameters: dose 1 mg/kg, time < 24 hr, route intravenous; conditions: in vivo
[19] = AUC (0 to 24 hrs) in rat at 5 mg/kg, po; format: ADME, organism-based; parameters: dose 5 mg/kg, time < 24 hr, route oral; conditions: in vivo
[20] = Half life in rat at 1 mg/kg, iv; format: ADME, organism-based; conditions: in vivo
[21] = Volume of distribution at steady state in rat at 1 mg/kg, iv; format: ADME, organism-based; conditions: in vivo, read-out: Vdss
[22] = Cmax in ICR mouse at 2 mg/kg, iv; format: ADME, organism-based; parameters: dose 2 mg/kg, route intravenous; conditions: in vivo
[23] = Cmax in ICR mouse at 25 mg/kg, po; format: ADME, organism-based; parameters: dose 25 mg/kg, route oral; conditions: in vivo
[24] = Volume of distribution at steady state in ICR mouse at 2 mg/kg, iv; format: ADME, organism-based; conditions: in vivo, read-out: Vdss
[25] = Tmax in ICR mouse at 25 mg/kg, po; format: ADME, organism-based; conditions: in vivo
Mus musculus [26] = experiment: AUC (0 to 24 hrs) in ICR mouse at 25 mg/kg, po; format: ADME, organism-based; parameters: dose 25 mg/kg, time < 24 hr, route oral; conditions: in vivo
[27] = Half life in ICR mouse at 2 mg/kg, iv; format: ADME, organism-based; conditions: in vivo
Mus musculus [28] = experiment: (§1) AUC (0 to 24 hrs) in ICR mouse at 2 mg/kg, iv; format: ADME, organism-based; parameters: time < 24 hr, dose 2 mg/kg, route intravenous; conditions: in vivo, 24 h
[29] = Half life in ICR mouse at 25 mg/kg, po; format: ADME, organism-based; conditions: in vivo
Mus musculus [30] = experiment: Oral bioavailability in ICR mouse at 25 mg/kg; format: ADME, organism-based; conditions: in vivo
[31] = AUC (0 to 24 hrs) in ICR mouse at 12.5 mg/kg, po; format: ADME, organism-based; parameters: time < 24 hr, dose 12.5 mg/kg, route oral; conditions: in vivo
[32] = Tmax in ICR mouse at 12.5 mg/kg, po; format: ADME, organism-based; conditions: in vivo
[33] = Half life in ICR mouse at 12.5 mg/kg, po; format: ADME, organism-based; conditions: in vivo
[34] = as §1; format: ADME, organism-based; parameters: time < 24 hr, dose 2 mg/kg, route intravenous; conditions: ICR, in vivo
[35] = Plasma clearance in ICR mouse at 2 mg/kg, iv; format: ADME, organism-based
[36] = Oral bioavailability in ICR mouse at 12.5 mg/kg; format: ADME, organism-based; conditions: in vivo
[37] = Cmax in ICR mouse at 12.5 mg/kg, po; format: ADME, organism-based; parameters: dose 12.5 mg/kg, route oral; conditions: in vivo
[38] = Cmax in ICR mouse at […], po; format: ADME, organism-based; parameters: dose 8.3 mg/kg, route oral; conditions: in vivo
Mus musculus [39] = experiment: AUC (0 to 24 hrs) in ICR mouse at […], po; format: ADME, organism-based; parameters: time < 24 hr, dose 8.3 mg/kg, route oral; conditions: in vivo
[40] = Half life in ICR mouse at […], po; format: ADME, organism-based; conditions: in vivo
[41] = Tmax in ICR mouse at […], po; format: ADME, organism-based; conditions: in vivo
Mus musculus [42] = experiment: Oral bioavailability in ICR mouse at […]; format: ADME, organism-based; conditions: in vivo

CS(=O)(=O)CCCn1c(Cn2nc(S(C)(=O)=O)c3ccccc32)nc2cc(Cl)ccc21
Tmax [1]: 2.67 h | CLhep predicted [2]: 14.9 mL/min/kg | half-life [3]: 3.66 h | Cmax [4]: 22.2 ng/mL | Vd [5]: 2.5 L/kg | Papp [6]: 2.78 ×10⁻⁶ cm/s | half-life [7]: 3.91 h | CLhep predicted [8]: 3.42 mL/min/kg | bioavailability [9]: 1.7% | Cmax [10]: 1160 ng/mL | AUC(0-t) at 24 h [11]: 2470 ng·h/mL | AUC(0-t) at 24 h [12]: 204 ng·h/mL | clearance [13]: 17.4 mL/min/kg

CS(=O)(=O)CCCn1c(Cn2cc(S(C)(=O)=O)c3ccccc32)nc2cc(Cl)ccc21
Cmax [14]: 371 ng/mL | CLhep predicted [2]: 34 mL/min/kg | Cmax [15]: 4.05 ng/mL | Papp [6]: 1.55 to 2.36 ×10⁻⁶ cm/s | Tmax [16]: 4.67 h | CLhep predicted [8]: 0.66 mL/min/kg | CLhep predicted [17]: 1.33 mL/min/kg | bioavailability [18]: 1.46% | AUC (Rattus norvegicus): 294 ng·h/mL | AUC(0-t) at 24 h [19]: 21.4 ng·h/mL | half-life [20]: 0.674 h | Vd [21]: 2.71 L/kg

CS(=O)(=O)c1nn(Cc2nc3cc(Cl)ccc3n2CCCCO)c2cnccc12
Cmax [22]: 1420 ng/mL | CLhep predicted [2]: 25.5 mL/min/kg | Cmax [23]: 425 ng/mL | Vd [24]: 1.08 L/kg | Papp [6]: 2.42 ×10⁻⁶ cm/s | Tmax [25]: 0.25 h | CLhep predicted [8]: 2.58 mL/min/kg | AUC (Mus musculus [26]): 580 ng·h/mL | CLhep predicted [17]: 20.7 mL/min/kg | half-life [27]: 0.297 h | AUC (Mus musculus [28]): 1380 ng·h/mL | half-life [29]: 1.81 h | F (Mus musculus [30]): 19%

CS(=O)(=O)c1nn(Cc2nc3cc(Cl)ccc3n2CCCO)c2cnccc12
Cmax [22]: 1730 ng/mL | CLhep predicted [2]: 15.3 mL/min/kg | Vd [24]: 8.3 L/kg | Papp [6]: 3.47 ×10⁻⁶ cm/s | AUC(0-t) at 24 h [31]: 891 ng·h/mL | CLhep predicted [8]: 2.96 mL/min/kg | Tmax [32]: 0.5 h | CLhep predicted [17]: 14.9 mL/min/kg | half-life [27]: 4.05 h | half-life [33]: 6.6 h | AUC(0-t) at 24 h [34]: 954 ng·h/mL | clearance [35]: 37.4 mL/min/kg | bioavailability [36]: 17.1% | Cmax [37]: 155 ng/mL

CS(=O)(=O)CCn1c(Cc2cn(S(C)(=O)=O)c3ccccc23)nc2ccccc21
CLhep predicted [2]: 73.2 mL/min/kg | CLhep predicted [8]: 16.5 mL/min/kg

CS(=O)(=O)CCc1c(CN2C(=O)C3(CC3)c3ccncc32)nc2cc(Cl)ccn12
CLhep predicted [2]: 63.5 mL/min/kg | CLhep predicted [8]: 2.6 mL/min/kg

CS(=O)(=O)c1nn(Cc2nc3cc(Cl)ccc3n2CCC(F)(F)F)c2cnccc12
Cmax [22]: 1940 ng/mL | CLhep predicted [2]: 18 mL/min/kg | Vd [24]: 1.04 L/kg | Papp [6]: 2.81 ×10⁻⁶ cm/s | CLhep predicted [8]: 1.09 mL/min/kg | CLhep predicted [17]: 0.28 mL/min/kg | half-life [27]: 1.03 h | AUC (Mus musculus [28]): 4830 ng·h/mL | Cmax [38]: 589 ng/mL | AUC (Mus musculus [39]): 2730 ng·h/mL | clearance [35]: 12.2 mL/min/kg | half-life [40]: 3.16 h | Tmax [41]: 1 h | F (Mus musculus [42]): 42.8%

CS(=O)(=O)CCn1c(Cn2cc(S(C)(=O)=O)c3ccccc32)nc2cc(Cl)ccc21
Papp [6]: 2.3 ×10⁻⁶ cm/s

CS(=O)(=O)c1nn(Cc2nc3cc(Cl)ccc3n2CCC(O)C(F)(F)F)c2cnccc12 (stereo not given)
CLhep predicted [2]: 26.5 mL/min/kg | Papp [6]: 4.29 ×10⁻⁶ cm/s | CLhep predicted [8]: 4.51 mL/min/kg | CLhep predicted [17]: 18 mL/min/kg
